Experimental data as given in PMC4802617 (Chinese Medicine, 2016).
Values joined by “and” are separate entries in the source; they are usually repeats but may differ in a detail not shown here. Equal entries are not always repeated. “Also recorded” adds a separate entry of the source. Structures can show the parent of a compound that is named as a salt. Where two headings read alike, the source gives them in different places.

Tests used:
[1] = target: T1, CYP2E1 (Homo sapiens, UniProt P05181); conditions: CYP2E1 ref 28; read-out: Ki, specific inhibitor/reported values; cited from earlier work
T1 construct: tissue Cypex Ltd. (UK); host or cells: pooled human liver microsomes, ten donors
T1 sequence (P05181 whole entry): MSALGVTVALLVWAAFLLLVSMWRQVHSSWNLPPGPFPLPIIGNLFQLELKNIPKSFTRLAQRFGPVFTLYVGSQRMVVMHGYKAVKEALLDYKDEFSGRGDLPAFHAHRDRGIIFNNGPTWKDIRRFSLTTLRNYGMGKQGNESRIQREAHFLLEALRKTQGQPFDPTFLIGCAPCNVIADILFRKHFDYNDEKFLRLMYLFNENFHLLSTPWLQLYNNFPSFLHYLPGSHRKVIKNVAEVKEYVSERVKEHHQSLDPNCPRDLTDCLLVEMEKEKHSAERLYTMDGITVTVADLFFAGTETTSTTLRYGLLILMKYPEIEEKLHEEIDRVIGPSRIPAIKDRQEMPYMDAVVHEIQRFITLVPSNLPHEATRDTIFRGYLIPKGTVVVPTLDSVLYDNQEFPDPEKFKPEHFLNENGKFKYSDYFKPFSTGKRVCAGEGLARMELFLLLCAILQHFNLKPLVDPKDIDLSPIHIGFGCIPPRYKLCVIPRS

[2] = target: T2, CYP2D6 (Homo sapiens, UniProt P10635); assay: Inhibition of metoprolol α-hydroxylation in HLMs; type: in vitro ADME
T2 construct: tissue Cypex Ltd. (UK); host or cells: pooled human liver microsomes, ten donors
T2 sequence (P10635 whole entry): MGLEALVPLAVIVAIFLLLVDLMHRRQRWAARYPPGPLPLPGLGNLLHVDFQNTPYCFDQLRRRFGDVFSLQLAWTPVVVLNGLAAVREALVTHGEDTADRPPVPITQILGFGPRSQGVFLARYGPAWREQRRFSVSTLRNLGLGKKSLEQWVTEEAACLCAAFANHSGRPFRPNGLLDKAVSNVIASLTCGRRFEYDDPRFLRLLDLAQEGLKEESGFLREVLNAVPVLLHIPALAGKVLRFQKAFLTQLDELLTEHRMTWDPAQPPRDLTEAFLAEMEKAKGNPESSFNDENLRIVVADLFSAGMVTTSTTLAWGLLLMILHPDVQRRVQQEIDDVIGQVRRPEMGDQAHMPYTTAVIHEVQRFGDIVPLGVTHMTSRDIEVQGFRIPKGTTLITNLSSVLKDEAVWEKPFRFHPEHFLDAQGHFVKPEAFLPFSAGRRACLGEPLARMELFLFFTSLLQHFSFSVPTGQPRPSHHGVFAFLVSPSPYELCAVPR
Procedure: (§1) The CYP isoform-specific probe reactions used were phenacetin O-deethylation (for CYP1A2), coumarin 7-hydroxylation (for CYP2A6), tolbutamide 4-hydroxylation (for CYP2C9), metoprolol α-hydroxylation (for CYP2D6), chlorzoxazone 6-hydroxylation (for CYP2E1), S-mephenytoin 4-hydroxylation (for CYP2C19), and midazolam 1-hydroxylation (for CYP3A4). […] Each reaction was initiated by addition of 1 mg/mL NADPH. The final incubations were performed in a shaking water bath at 37 °C for 30 min. The incubations were performed in triple, and the incubation conditions specific to each CYP isoform were within the linear range for the velocity of the reaction (incubation time as well as substrate and protein concentrations). […] The reactions were stopped by adding 0.2 mL of ice-cold acetonitrile containing irbesartan (114.9 ng/mL) as the internal standard. The samples were vortexed for 5 min. After centrifugation (5415D centrifuge, Eppendorf, Germany) (12,000×g for 10 min), the supernatants were transferred and aliquots of 20 µL were injected into the HPLC–MS/MS system for analysis.
(§2) A pilot inhibitory analysis of each CYP isoform was performed to determine the potency of inhibition and to select CYP isoforms for further detailed study of their inhibitory activities. […] The substrates comprising phenacetin, coumarin, tolbutamide, metoprolol, chlorzoxazone, S-mephenytoin, and midazolam were employed at concentrations of 10, 5, 100, 7.5, 40, 100, and 5 µM, respectively. All incubation conditions were the same as those described above.
(§3) Values of P < 0.05 denoted significance in all cases. […] The activity of each CYP isoform was calculated by the MCR of its corresponding probe substrate to determine the inhibition of the CYP isoforms. […] The IC50 values were determined by analyzing the plot of the logarithm of the inhibitor concentration versus the percentage of activity remaining after inhibition, using the SPSS for Windows Version 11.5 (SPSS Inc., USA). […]

[3] = target: T3, CYP2C19 (Homo sapiens, UniProt P33261); assay: Inhibition of S-mephenytoin 4-hydroxylation in HLMs; type: in vitro ADME
T3 construct: tissue Cypex Ltd. (UK); host or cells: pooled human liver microsomes, ten donors
T3 sequence (P33261 whole entry): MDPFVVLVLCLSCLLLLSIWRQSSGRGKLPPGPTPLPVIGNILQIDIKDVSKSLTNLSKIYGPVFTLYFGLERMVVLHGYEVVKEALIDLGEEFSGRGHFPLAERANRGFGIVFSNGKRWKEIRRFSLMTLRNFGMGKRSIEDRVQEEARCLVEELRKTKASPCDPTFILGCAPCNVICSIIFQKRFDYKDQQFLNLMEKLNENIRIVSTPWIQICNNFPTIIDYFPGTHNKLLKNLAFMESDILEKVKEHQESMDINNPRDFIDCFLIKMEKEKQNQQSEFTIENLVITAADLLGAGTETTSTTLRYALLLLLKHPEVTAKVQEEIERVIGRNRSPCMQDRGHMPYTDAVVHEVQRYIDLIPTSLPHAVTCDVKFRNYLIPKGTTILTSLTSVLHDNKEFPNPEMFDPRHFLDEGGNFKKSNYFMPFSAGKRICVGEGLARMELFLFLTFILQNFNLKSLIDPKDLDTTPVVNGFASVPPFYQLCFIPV
Procedure: as §1, §2, §3

[4] = target: T4, CYP2A6 (Homo sapiens, UniProt P11509); assay: Inhibition of coumarin 7-hydroxylation in HLMs; type: in vitro ADME
T4 construct: tissue Cypex Ltd. (UK); host or cells: pooled human liver microsomes, ten donors
T4 sequence (P11509 1-494): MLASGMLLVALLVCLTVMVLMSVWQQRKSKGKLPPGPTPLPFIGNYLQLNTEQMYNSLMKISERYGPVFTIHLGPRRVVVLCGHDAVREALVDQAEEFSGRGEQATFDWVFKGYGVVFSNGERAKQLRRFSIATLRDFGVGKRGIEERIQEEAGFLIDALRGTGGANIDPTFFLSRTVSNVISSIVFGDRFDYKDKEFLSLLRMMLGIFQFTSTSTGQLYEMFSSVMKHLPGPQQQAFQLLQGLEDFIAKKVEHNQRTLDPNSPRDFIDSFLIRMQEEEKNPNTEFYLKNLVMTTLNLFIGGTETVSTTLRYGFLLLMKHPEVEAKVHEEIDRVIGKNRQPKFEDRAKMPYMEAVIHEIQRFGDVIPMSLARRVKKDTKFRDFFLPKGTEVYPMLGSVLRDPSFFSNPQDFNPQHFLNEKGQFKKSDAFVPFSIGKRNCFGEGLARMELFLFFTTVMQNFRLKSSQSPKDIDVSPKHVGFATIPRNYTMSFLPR
Procedure: as §1, §2, §3

[5] = target: T5, CYP2C9 (Homo sapiens, UniProt P11712); assay: Inhibition of tolbutamide 4-hydroxylation in HLMs; type: in vitro ADME
T5 construct: tissue Cypex Ltd. (UK); host or cells: pooled human liver microsomes, ten donors
T5 sequence (P11712 whole entry): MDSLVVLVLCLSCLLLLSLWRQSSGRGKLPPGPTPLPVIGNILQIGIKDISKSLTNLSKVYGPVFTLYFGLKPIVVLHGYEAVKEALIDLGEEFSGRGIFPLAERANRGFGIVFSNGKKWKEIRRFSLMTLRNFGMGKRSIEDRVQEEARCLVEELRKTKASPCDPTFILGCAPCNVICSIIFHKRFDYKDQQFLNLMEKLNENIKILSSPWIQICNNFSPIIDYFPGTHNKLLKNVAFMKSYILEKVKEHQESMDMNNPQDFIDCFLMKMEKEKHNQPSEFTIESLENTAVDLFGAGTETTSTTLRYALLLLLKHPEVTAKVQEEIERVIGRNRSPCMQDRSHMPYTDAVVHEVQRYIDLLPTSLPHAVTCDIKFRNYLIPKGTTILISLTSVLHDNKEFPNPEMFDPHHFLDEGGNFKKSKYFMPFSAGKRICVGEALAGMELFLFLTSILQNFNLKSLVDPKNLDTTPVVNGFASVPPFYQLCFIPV
Procedure: as §1, §2, §3

[6] = rats, cited from earlier work
[7] = target: T6, CYP1A2 (Homo sapiens, UniProt P05177); assay: Inhibition of phenacetin O-deethylation in HLMs; type: in vitro ADME; parameters: tissue Cypex Ltd. (UK); host or cells: pooled human liver microsomes, ten donors
T6 sequence (P05177 1-516): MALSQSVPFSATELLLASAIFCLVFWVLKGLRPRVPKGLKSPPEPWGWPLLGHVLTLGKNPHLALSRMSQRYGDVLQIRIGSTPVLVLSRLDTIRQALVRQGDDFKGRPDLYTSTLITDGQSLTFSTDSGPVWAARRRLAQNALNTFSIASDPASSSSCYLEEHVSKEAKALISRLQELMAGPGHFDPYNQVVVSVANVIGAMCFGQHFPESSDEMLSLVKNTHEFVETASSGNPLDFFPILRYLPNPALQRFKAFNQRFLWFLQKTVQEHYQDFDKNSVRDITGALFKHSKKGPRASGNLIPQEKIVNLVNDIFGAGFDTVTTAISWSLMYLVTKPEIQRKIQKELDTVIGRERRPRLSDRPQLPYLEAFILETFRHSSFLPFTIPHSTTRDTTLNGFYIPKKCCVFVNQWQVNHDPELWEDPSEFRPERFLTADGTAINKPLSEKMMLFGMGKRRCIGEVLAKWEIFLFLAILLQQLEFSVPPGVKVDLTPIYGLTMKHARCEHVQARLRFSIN
Procedure: as §1, §2, §3

[8] = target: T1, CYP2E1; assay: Inhibition of chlorzoxazone 6-hydroxylation in HLMs; type: in vitro ADME
Procedure: as §1, §2, §3

[9] = Effects of specific CYP inhibitors on metabolic clearance rate (MCR) of STS in HLMs; type: in vitro ADME, human; conditions: STS 10 µM, in the presence of KET 1 µM
[10] = target: T6, CYP1A2; conditions: in vivo; cited from earlier work
[11] = rats, intravenous 2 mg/kg, cited from earlier work
[12] = target: T7, CYP3A4 (Homo sapiens, UniProt P08684); assay: Inhibition of midazolam 1-hydroxylation in HLMs (IC50, Ki, Dixon plots); type: in vitro ADME; parameters: tissue Cypex Ltd. (UK); host or cells: pooled human liver microsomes, ten donors
T7 sequence (P08684 whole entry): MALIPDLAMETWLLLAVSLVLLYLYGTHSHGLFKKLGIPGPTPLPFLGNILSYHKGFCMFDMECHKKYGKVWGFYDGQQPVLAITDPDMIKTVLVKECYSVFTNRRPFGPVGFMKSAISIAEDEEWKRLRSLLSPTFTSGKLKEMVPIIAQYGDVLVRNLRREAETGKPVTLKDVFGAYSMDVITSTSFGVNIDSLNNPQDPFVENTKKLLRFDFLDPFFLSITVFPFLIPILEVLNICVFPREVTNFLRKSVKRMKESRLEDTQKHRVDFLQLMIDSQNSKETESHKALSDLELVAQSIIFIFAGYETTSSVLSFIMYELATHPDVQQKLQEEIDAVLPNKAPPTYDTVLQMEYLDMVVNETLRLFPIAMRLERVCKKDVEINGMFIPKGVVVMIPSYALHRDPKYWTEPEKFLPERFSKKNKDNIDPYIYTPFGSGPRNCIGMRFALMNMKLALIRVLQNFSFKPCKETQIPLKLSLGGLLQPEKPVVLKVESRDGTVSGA
Procedure: as §1, §2
Therefore, Dixon plots for the inhibition of CYP3A4 were determined by incubating the substrate probe at multiple concentrations with or without the test inhibitor at multiple concentrations with the HLMs and cofactors. The inhibition data obtained from the pilot experiments were used as a guide to generate appropriate probe substrate and test inhibitor concentrations for determination of the Ki values for each CYP isoform. The isoform-specific probe substrate concentrations used were 5–50 µM midazolam for CYP3A4.
(§4) Values of P < 0.05 denoted significance in all cases. […] The activity of each CYP isoform was calculated by the MCR of its corresponding probe substrate to determine the inhibition of the CYP isoforms. […] The IC50 values were determined by analyzing the plot of the logarithm of the inhibitor concentration versus the percentage of activity remaining after inhibition, using the SPSS for Windows Version 11.5 (SPSS Inc., USA). The inhibition data were fitted to different models of enzyme inhibition (competitive, noncompetitive, and uncompetitive) by nonlinear least-squares regression analysis using GraphPad Prism 5 software (GraphPad Co. Ltd., USA) to calculate the Ki values.

[13] = target: T7, CYP3A4; assay: MCR of STS with recombinant CYP3A4 under inhibition by KET; type: in vitro ADME; conditions: KET 1 µM
[14] = target: T7, CYP3A4; assay: Kinetic analysis of STS metabolism by recombinant CYP3A4; type: in vitro ADME
Procedure: The CYP isoform-specific probe reactions used were phenacetin O-deethylation (for CYP1A2), coumarin 7-hydroxylation (for CYP2A6), tolbutamide 4-hydroxylation (for CYP2C9), metoprolol α-hydroxylation (for CYP2D6), chlorzoxazone 6-hydroxylation (for CYP2E1), S-mephenytoin 4-hydroxylation (for CYP2C19), and midazolam 1-hydroxylation (for CYP3A4). […] Each reaction was initiated by addition of 1 mg/mL NADPH. The final incubations were performed in a shaking water bath at 37 °C for 30 min. The incubations were performed in triple, and the incubation conditions specific to each CYP isoform were within the linear range for the velocity of the reaction (incubation time as well as substrate and protein concentrations). […]
The incubation conditions consisted of substrate probe, HLMs (0.5 mg/mL) or CYP isoforms (10 pmol), and 0.1 M sodium phosphate buffer (pH 7.4) in a total volume of 0.2 mL. […] All values were expressed as the mean ± standard deviation (SD). […]
as §3

[15] = Kinetic analysis of STS metabolism by human liver microsomes; type: in vitro ADME
Procedure: as §1
The incubation conditions consisted of substrate probe, HLMs (0.5 mg/mL) or CYP isoforms (10 pmol), and 0.1 M sodium phosphate buffer (pH 7.4) in a total volume of 0.2 mL. […] All values were expressed as the mean ± standard deviation (SD). The mean intrinsic clearance rate (CLint) for the in vitro incubation was estimated by Vmax/Km.
as §4

[16] = target: T5, CYP2C9; conditions: cited from earlier work
[17] = system: human CYP1A2 isoform; conditions: specific human CYP1A2 isoform, competitive ref 32; cited from earlier work
[18] = target: T6, CYP1A2; parameters: tissue Cypex Ltd. (UK); host or cells: pooled human liver microsomes, ten donors; conditions: CYP1A2, pooled HLMs, competitive ref 32; cited from earlier work
[19] = classification of Kong et al., read-out: potency class of inhibitor by IC50

Cc1ncsc1CCCl [CHL, chlormethiazole hydrochloride]
Ki [1]: 12 µM

Cc1c(S(=O)(=O)O)oc2c1C(=O)C(=O)c1c-2ccc2c1CCCC2(C)C [STS, sodium tanshinone IIA sulfonate]
inhibitory effect on CYP2D6 activity ([2]; STS 1–100 µM, HLMs): minimal; also recorded: negligible
IC50 ([2]; STS 1–100 µM, metoprolol […], HLMs, read-out: IC50): > 100 µM
IC50 [2, 19]: ≥ 50 µM
inhibitory effect on CYP2C19 activity ([3]; STS 1–100 µM, HLMs): minimal; also recorded: negligible
IC50 ([3]; STS 1–100 µM, S-mephenytoin 100 µM, HLMs, read-out: IC50): > 100 µM
IC50 [3, 19]: ≥ 50 µM
inhibitory effect on CYP2A6 activity ([4]; STS 1–100 µM, HLMs): minimal; also recorded: negligible
IC50 ([4]; STS 1–100 µM, coumarin 5 µM, HLMs, read-out: IC50): > 100 µM
IC50 [4, 19]: ≥ 50 µM
inhibitory effect on CYP2C9 activity ([5]; STS 1–100 µM, HLMs): minimal; also recorded: negligible
IC50 ([5]; STS 1–100 µM, tolbutamide 100 µM, HLMs, read-out: IC50): > 100 µM
IC50 [5, 19]: ≥ 50 µM
plasma concentration ([6]; 4 h after the injection ref 15, 16): ≤ 20 ng/mL
t1/2 ([6]; after injection ref 15, 16): < 54 min
inhibitory effect on CYP1A2 activity ([7]; STS 1–100 µM, HLMs): minimal; also recorded: negligible; also recorded: not an inhibitor
IC50 ([7]; STS 1–100 µM, phenacetin 10 µM, HLMs, read-out: IC50): > 100 µM
IC50 [7, 19]: ≥ 50 µM
inhibitory effect on CYP2E1 activity ([8]; STS 1–100 µM, HLMs): minimal; also recorded: negligible
IC50 ([8]; STS 1–100 µM, chlorzoxazone 40 µM, HLMs, read-out: IC50): > 100 µM
IC50 [8, 19]: ≥ 50 µM
MCR of STS, of control [9]: 37.4%
increase of CYP1A2 activity [10]: 41.1%
maximal STS concentration in liver ([11]; 5 min after administration ref 15, 16): > 10 µg/mL
detection in other tissues ([11]; 2 h after administration, other tissues ref 15, 16): hardly detected
time after administration at which STS could be determined ([11]; kidney ref 15, 16): 4 h
time after administration at which STS could be determined ([11]; liver ref 15, 16): 12 h
Ki fold higher than that of KET ([12]; HLMs, versus reported KET value): approximately 212 fold
IC50 ([12]; STS 1–100 µM, midazolam 5 µM, HLMs, brackets = 95 % confidence interval, read-out: IC50): 6.4 µM and 6.38 µM
IC50 [12, 19]: ≤ 10 µM
type of inhibition ([12]; midazolam 1-hydroxylation in HLMs, Dixon / Lineweaver–Burk plots): competitive type of inhibition; also recorded: full competitive inhibition
IC50 fold higher than that of KET ([12]; midazolam 1-hydroxylation, HLMs, versus reported KET values): 26.6–79.7 fold
Ki ([12]; midazolam 5–50 µM, STS 0–100 µM, HLMs, competitive model, brackets = 95 % confidence interval): 3.18 µM
MCR of STS, of control value ([13]; recombinant CYP3A4, STS 10 µM): 58.4%
MCR of STS, of control value ([13]; recombinant CYP3A4, STS 50 µM): 29.4%
Vmax ([14]; Fig. 2b, CYP3A4, printed in picture): 6.8
in vitro CLint ([14]; STS with CYP3A4, Vmax/Km): 0.902 mL/nmol P450/min
Vmax ([15]; Fig. 2a, human liver microsomes): 0.9
Vmax ([15]; STS metabolism, HLMs 0.5 mg/mL, mean ± SD): 0.9 ± 0.1 nmol/mg protein/min
Km ([15]; human, human liver microsomes, pH 7.4): 54.8 ± 14.6 µM
microsomal CLint ([15]; human, human liver microsomes, pH 7.4, read-out: in vitro CLint): 16 µL/min/mg

Cc1coc2c1C(=O)C(=O)c1c-2ccc2c1CCCC2(C)C [tanshinone IIA]
inhibition of CYP2C9 [16]: medium competitive inhibitor
Ki [17]: 0.05 µM
Ki [18]: 1.45 µM
